Several values for one entry are separate records, joined by “and”; a condition that tells them apart may be missing. Equal entries are not always repeated. Where two headings read alike, the source gives them in different places.
Tests used:
ER-α = molecular target: T1, ER-α (Homo sapiens, UniProt P03372); assay: ER-α ligand binding domain competitive binding with [3H]Estradiol
T1 sequence (P03372 311-547 limits assumed): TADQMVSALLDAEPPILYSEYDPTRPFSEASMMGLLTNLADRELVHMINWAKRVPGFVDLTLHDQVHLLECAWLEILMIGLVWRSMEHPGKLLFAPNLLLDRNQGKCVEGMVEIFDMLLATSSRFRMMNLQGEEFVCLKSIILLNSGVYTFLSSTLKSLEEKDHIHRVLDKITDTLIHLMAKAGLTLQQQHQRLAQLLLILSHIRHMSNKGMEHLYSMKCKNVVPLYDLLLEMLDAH

ER-β = ER-β (Homo sapiens, UniProt Q92731); assay: ER-β ligand binding domain competitive binding with [3H]Estradiol
Sequence of ER-β (Q92731 264-498 limits assumed, species assumed): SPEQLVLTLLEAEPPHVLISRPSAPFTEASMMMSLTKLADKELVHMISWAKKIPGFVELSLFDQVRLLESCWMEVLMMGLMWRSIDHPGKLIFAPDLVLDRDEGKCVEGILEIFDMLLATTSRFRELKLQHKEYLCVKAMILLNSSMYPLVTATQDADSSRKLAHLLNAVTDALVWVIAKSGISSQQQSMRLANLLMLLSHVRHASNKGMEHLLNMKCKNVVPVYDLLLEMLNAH

ER-alpha = molecular target: T2, ER-alpha (Homo sapiens, UniProt P03372); assay: ER-alpha transactivation (ERE-LUC luciferase) in HEK-293 cells; format: cell-based; conditions: for EC50: agonist mode, drug alone, read-out: Agonist ER-α; for IC50: antagonist mode, in combination with estradiol, read-out: Antagonist ER-α;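 for all read-outs here: HEK-293 cells co-transfected with an ER-alpha expression plasmid, an ERE-driven firefly luciferase reporter and a CMV Renilla control, with the firefly signal normalized to Renilla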
T2 construct: expressed in transfected cells; host or cells: HEK-293
T2 sequence (P03372 1-595): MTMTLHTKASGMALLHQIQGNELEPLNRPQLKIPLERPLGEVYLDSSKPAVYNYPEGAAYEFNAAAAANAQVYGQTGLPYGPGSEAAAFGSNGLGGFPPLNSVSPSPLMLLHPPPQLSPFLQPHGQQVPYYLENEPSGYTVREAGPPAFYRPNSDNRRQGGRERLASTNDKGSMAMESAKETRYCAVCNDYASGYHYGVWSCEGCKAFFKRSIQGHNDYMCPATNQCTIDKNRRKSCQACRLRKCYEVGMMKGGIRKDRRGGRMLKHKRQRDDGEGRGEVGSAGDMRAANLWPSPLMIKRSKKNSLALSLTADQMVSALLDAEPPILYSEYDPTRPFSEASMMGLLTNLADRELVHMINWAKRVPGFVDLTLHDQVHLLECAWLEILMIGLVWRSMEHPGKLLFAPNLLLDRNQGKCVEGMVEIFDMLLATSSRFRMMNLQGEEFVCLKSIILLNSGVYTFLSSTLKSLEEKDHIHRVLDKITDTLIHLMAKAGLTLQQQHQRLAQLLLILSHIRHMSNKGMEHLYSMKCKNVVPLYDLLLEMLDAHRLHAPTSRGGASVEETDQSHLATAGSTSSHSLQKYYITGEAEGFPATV

ER-beta = molecular target: T3, ER-beta (Homo sapiens, UniProt Q92731); assay: ER-beta transactivation (ERE-LUC luciferase) in HEK-293 cells; format: cell-based; conditions: for EC50: agonist mode, drug alone, read-out: Agonist ER-β; for IC50: antagonist mode, in combination with estradiol, read-out: Antagonist ER-β;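 for all read-outs here: HEK-293 cells transiently transfected with an ER-β expression plasmid and ERE-LUC reporter, firefly luciferase read-out normalized to co-transfected Renilla luciferase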
T3 construct: expressed in transfected cells; host or cells: HEK-293
T3 sequence (Q92731 whole entry, species assumed): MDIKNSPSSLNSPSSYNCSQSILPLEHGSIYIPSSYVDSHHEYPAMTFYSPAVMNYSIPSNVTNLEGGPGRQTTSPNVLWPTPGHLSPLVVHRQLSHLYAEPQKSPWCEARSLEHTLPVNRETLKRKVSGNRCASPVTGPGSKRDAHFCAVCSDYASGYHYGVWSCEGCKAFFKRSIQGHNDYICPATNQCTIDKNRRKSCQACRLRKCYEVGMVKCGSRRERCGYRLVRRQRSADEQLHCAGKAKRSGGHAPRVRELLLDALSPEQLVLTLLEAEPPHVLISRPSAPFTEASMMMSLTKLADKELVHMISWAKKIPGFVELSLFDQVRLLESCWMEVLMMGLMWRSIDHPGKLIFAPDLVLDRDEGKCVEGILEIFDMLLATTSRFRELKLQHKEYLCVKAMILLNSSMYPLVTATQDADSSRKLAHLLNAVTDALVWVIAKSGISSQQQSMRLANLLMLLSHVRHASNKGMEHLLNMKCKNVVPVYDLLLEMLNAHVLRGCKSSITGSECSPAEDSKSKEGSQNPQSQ

AKR1C3 [1] = molecular target: T4, AKR1C3 (Homo sapiens, UniProt P42330); assay: Purified AKR1C3 enzyme assay, [14C]-A'dione to testosterone, TLC based; format: biochemical; parameters: GST (N); made in house; host or cells: bacterial culture, IPTG induced (E. coli BL21-DE3 is named only for the crystallography preparation)
T4 sequence (P42330 1-323): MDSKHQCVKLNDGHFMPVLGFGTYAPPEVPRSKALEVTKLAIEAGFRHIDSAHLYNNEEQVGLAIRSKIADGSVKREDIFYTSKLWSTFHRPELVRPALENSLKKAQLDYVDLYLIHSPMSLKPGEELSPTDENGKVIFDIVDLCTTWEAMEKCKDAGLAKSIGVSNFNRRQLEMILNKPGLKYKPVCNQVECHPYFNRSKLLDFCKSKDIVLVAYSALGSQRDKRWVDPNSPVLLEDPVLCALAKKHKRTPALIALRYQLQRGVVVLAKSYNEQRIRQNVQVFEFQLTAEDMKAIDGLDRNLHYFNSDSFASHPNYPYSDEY
Protocol: Perkin Elmer; […] American Radiolabeled Chemicals, St. Louis, Mo.). The reaction was stopped by the addition of 400 μl ethyl acetate, vortexed, and spun for […] at 2000 rpm. The upper layer was transferred to a new tube and air dried. The pellet was resuspended in 25 μl of methanol, spotted on TLC plates and fractionated in TLC chamber with 3:1 chloroform:ethyl acetate. Once the mobile phase reached the top, the plates were dried and exposed to a phosphoimager screen overnight. […] Perkin Elmer) was incubated at 37° C. for 60 min. The reaction was stopped by the addition of 400 μl ethyl acetate, vortexed, and spun for […] at 2000 rpm. The upper layer was transferred to a new tube and air dried. The pellet was resuspended in 25 μl of methanol, spotted on TLC plates and fractionated in TLC chamber with 3:1 chloroform:ethyl acetate. Once the mobile phase reached the top, the plates were dried and exposed to a phosphoimager screen overnight.

[2] = Liver microsome incubation (HLM Phase I and Phase I + II), LC-MS/MS; format: in vitro ADME, human; conditions: for microsomal CLint: human, human liver microsomes
Protocol: Stock solutions of prespective AKR1C3 inhibitors were prepared in DMSO at 5 mM and were incubated with liver microsomes (0.1 mg/mL). Incubations were conducted at 37° C. in a shaking water bath for 10 minutes (microsomes). Incubation durations were selected based on time course study (microsomes) or published literature (recombinant enzymes). Prepared samples were analyzed using LC-MS/MS.

AKR1C3 [3] = molecular target: T4, AKR1C3; assay: cell-based
Protocol: AKR1C3 expression was checked by Western blot to ensure that the cells over-express AKR1C3. […] Medium was changed to RPMI+1% csFBS without phenol red and maintained in this medium for 3 days to reduce basal hormone levels. […] The data was plotted in SigmaPlot (Systat Software Inc.) and the IC50 values for inhibitors were calculated.
HEK-293 cells stably transfected with AKR1C3 were plated in 24 well plates and were maintained in RPMI+1% csFBS without phenol red for 2 days to reduce the basal steroid levels.

[4] = 10 μM inhibitor, purified AKR1C3 TLC based enzyme assay, read-out: AKR1C3 inhibition at 10 μM
[5] = read-out: % inhibition from control HSD-5 (10 uM)
[6] = HLM Phase I + II, read-out: HLM Phase I + II CLint
[7] = HLM Phase I, read-out: HLM Phase I CLint

Row | SMILES | Ki (ER-α) [nM] | Ki (ER-β) [nM] | EC50 (ER-alpha) [µM] | IC50 (ER-alpha) [µM] | EC50 (ER-beta) [µM] | IC50 (ER-beta) [µM] | inhibition at 10 µM (AKR1C3 [1]; [4]) [%] | inhibition at 10 µM (AKR1C3 [1]; [5]) [%] | HLM Phase I CLint ([2]; HLM Phase I) [µL/min/mg] | HLM Phase I T-1/2 ([2]; HLM Phase I) | HLM Phase I + II T-1/2 ([2]; HLM Phase I + II) [min] | microsomal CLint [2, 6] [µL/min/mg] | microsomal CLint [2, 7] [µL/min/mg] | IC50 (AKR1C3 [3]) [µM]
1 | O=c1c2ccc(O)cc2c(-c2ccc(O)cc2)cn1-c1ccc(O)cc1 [Compound 6, 6-hydroxy-2,4-bis(4-hydroxyphenyl)isoquinolin-1(2H)-one] | 1420 | 56.2 | > 10 | > 10 | > 10 | 1.95 | 0 | 0 |  |  |  |  |  | 
2 | COc1ccc(-c2cn(-c3ccc(CO)cc3)c(=O)c3ccc(OC)cc23)cc1 [Compound 10, 2-(4-hydroxymethyl)phenyl-6-methoxy-4-(4-methoxyphenyl)-isoquinolin-1(2H)-one] | > 1510 | > 2200 | > 10 | > 10 | > 10 | > 10 | 17 | 17 |  |  |  |  |  | 
3 | O=c1c2ccc(O)cc2c(-c2ccc(O)cc2)cn1-c1ccc(CBr)cc1 [Compound 11, 2-(4-bromomethyl)phenyl-6-hydroxy-4-(4-hydroxyphenyl)isoquinolin-1(2H)-one] |  | > 2200 | > 10 | > 10 | > 10 | > 10 | 55 | 55 | 119 | 8.23 min and 5.90 min | 5.0 | 138 | 84.1 | 5.18
4 | COc1ccc(-c2cn(-c3ccc(O)cc3)c(=O)c3ccc(O)cc23)cc1 [Compound 15b] | 2100 | 252 | > 10 | > 10 | > 10 | 0.128 |  | 47 |  | 28.3 min | 3.7 | 188 | 24.5 | 
5 | COc1ccc(-c2cn(-c3ccc(O)cc3)c(=O)c3c(O)cc(O)cc23)cc1 [Compound 15g, 6,8-dihydroxy-2-(4-hydroxyphenyl)-4-(4-methoxyphenyl)isoquinolin-1(2H)-one] |  | 2.77 |  |  | > 10 | 0.0224 |  | 40 | 35.8 | 16.5 min and 19.32 min | 1.6 | 422 | 42.1 | 4.52
6 | O=c1c2c(O)cc(O)cc2c(-c2ccccc2)cn1-c1ccc(O)cc1 [Compound 15h, 6,8-dihydroxy-2-(4-hydroxyphenyl)-4-phenylisoquinolin-1(2H)-one] |  | 3.03 | > 10 | 2.03 | > 10 | 0.0534 |  | 0 |  | 87.1 min | 11.4 | 60.7 | 7.9 | 6.64
7 | CCOC(=O)/C=C/c1cn(-c2ccc(OC)cc2)c(=O)c2c(O)cc(OC)cc12 [Compound 15j] | > 1510 | > 2200 | > 10 | > 10 | > 10 | > 10 |  | 10 |  |  |  |  |  | 
8 | O=C(O)/C=C/c1cn(-c2ccc(O)cc2)c(=O)c2ccc(O)cc12 [Compound 15k] | > 151 | > 220 |  |  |  |  |  | 12 |  |  |  |  |  | 
9 | O=c1c2ccc(O)cc2c(-c2ccc(C(F)(F)F)cc2)cn1-c1ccc(C(F)(F)F)cc1 [Compound 30, 6-hydroxy-2,4-bis(4-(trifluoromethyl)phenyl)isoquinolin-1(2H)-one] | > 1510 | > 2200 | > 10 | > 10 | > 10 | > 10 | 30 | 30 |  | 102.3 min | 7.9 | 88.1 | 6.8 | 
10 | O=c1c2ccc(O)cc2c(-c2ccc(C(F)(F)F)cc2)cn1-c1ccc(F)cc1 [Compound 34, 2-(4-fluorophenyl)-6-hydroxy-4-(4-(trifluoromethyl)phenyl)isoquinolin-1(2H)-one] | > 1510 | > 2200 | > 10 | > 10 | > 10 | > 10 | 10 | 10 |  |  |  |  |  | 
11 | COc1ccc(-n2cc(-c3ccc(C(F)(F)F)cc3)c3cc(OC)ccc3c2=O)cc1 [Compound 35, 6-methoxy-2-(4-methoxyphenyl)-4-(4-(trifluoromethyl)phenyl)isoquinolin-1(2H)-one] | > 1510 | > 2200 | > 10 | > 10 | > 10 | > 10 | 0 | 0 |  |  |  |  |  | 

Reference: patent US20130116277A1, “ALDO-KETO REDUCTASE SUBFAMILY 1C3 (AKR1C3) INHIBITORS” (priority 2007, published 2013)
